Reference: paper PMC10108740 (Journal of Medicinal Chemistry, 2023)

Columns and labels:
SARS-CoV-2 (WA-1) [1] = assay: Antiviral immunofluorescence assay, SARS-CoV-2 WA1 in Huh7.5 cells; assay type: cell-based
in vitro [2] = conditions: human
in vitro [3] = conditions: human; remark: listed apart in the source
SARS-CoV-2 (WA-1) [4] = assay: Antiviral immunofluorescence assay, SARS-CoV-2 WA1 in Vero-TMPRSS2 cells; assay type: cell-based; conditions: for EC50: Severe acute respiratory syndrome coronavirus 2, Vero/TMPRSS2; for EC90: Severe acute respiratory syndrome coronavirus 2, WA-1, Vero-TMPRSS2 cells, immunofluorescence, 38 hpi
[5] = system: SARS-CoV-2 WA1 (USA-WA1/2020); assay: Antiviral immunofluorescence assay, SARS-CoV-2 WA1 in Calu-3 cells; assay type: cell-based; conditions: for EC50: Severe acute respiratory syndrome coronavirus 2, Calu-3, WA1, Calu-3 cells, read-out: EC50; for EC50 / EC90: immunofluorescence, 44 hpi, mean ± SD; for EC90: Severe acute respiratory syndrome coronavirus 2, WA1, Calu-3 cells; for fold lower EC50 compared to V2043: Calu-3 and Huh7.5 cells; for fold more active than RDV: Calu-3 cells, based on EC50; for fold more active than 116-N1, the parent nucleoside of VV116: own EC50 compared with 116-N1 of ref 15
in vitro [6] = assay: in vitro
Protocol: Cells were seeded as per SARS-CoV-2 infection studies in opaque walled 96-well cell culture plates and incubated overnight for Huh7.5 and Vero-TMPRSS2 cells and for an additional 24h for Calu-3 cells. Compounds or controls were added at the indicated concentrations. Cells were incubated for 48h for Huh7.5 cells, 40–44h for Calu-3 cells, or 30–32h for Vero-TMPRSS2 cells at 37 °C and 5% CO2, an equal volume of CellTiter-Glo reagent (Cat. #G7570, Promega) or CellTiter-Glo 2.0 reagent (Cat. #G9241, Promega) was added and mixed, and luminescence was recorded on a Veritas Microplate Luminometer (Turner BioSystems) according to manufacturer recommendations. Percent viability was calculated compared to DMSO controls, and CC50 values were calculated using Prism 9.
Calu-3 cells were treated for 44h (A), Huh7.5 cells were treated for 48h (B), and Vero-
TMPRSS2 cells were treated for 38h (C) as in infection assays for each cell type. Cell viability
was measured by CellTiter-Glo assay and reported as % cell viability relative to DMSO controls.
Best fit curves calculated in Graphpad Prism 9 were used
to compute cytotoxic concentration 50% (CC50) values in Tables 1-3.

[7] = Severe acute respiratory syndrome coronavirus 2, Huh7.5
[8] = Severe acute respiratory syndrome coronavirus 2, WA-1, Huh7.5 cells, immunofluorescence, 48 hpi, read-out: EC50
[9] = Severe acute respiratory syndrome coronavirus 2, WA-1, Huh7.5 cells, immunofluorescence, 48 hpi, read-out: EC90

Structure (SMILES)	EC50 (SARS-CoV-2 (WA-1) [1]; [7]) [nM]	EC90 (SARS-CoV-2 (WA-1) [1]; [7]) [nM]	CC50 at 48 h (in vitro [2]) [µM]	CC50 at 44 h (in vitro [3]) [µM]	EC50 (SARS-CoV-2 (WA-1) [4]) [nM]	EC90 (SARS-CoV-2 (WA-1) [4]) [nM]	EC50 [5] [nM]	EC90 [5] [nM]	CC50 (in vitro [6]; chlorocebus aethiops) [µM]	EC50 (SARS-CoV-2 (WA-1) [1]; [8]) [nM]	EC90 (SARS-CoV-2 (WA-1) [1]; [9]) [nM]	fold lower EC50 compared to V2043 [5]	fold more active than RDV [5] [fold]	fold more active than 116-N1, the parent nucleoside of VV116 [5] [fold]	CC50 (in vitro [6]; African green monkey) [µM]
CCCCCCCCCCCCCCOC[C@H](COP(=O)(O)OC[C@H]1O[C@@](C#N)(c2ccc3c(N)ncnn23)[C@H](O)[C@@H]1O)OCc1ccccc1 [Compound 12a, ((2R,3S,4R,5R)-5-(4-Aminopyrrolo[2,1-f][1,2,4]triazin-7-yl)-5-cyano-3,4-dihydroxytetrahydrofuran-2-yl)methyl ((R)-2-(benzyloxy)-3-(tetradecyloxy)propyl) hydrogen phosphate]	157 ± 400	479 ± 19	> 100	> 100	909 ± 27	1630 ± 120	213 ± 97	575 ± 251	> 100						
CCCCCCCCCCCCCCCCCCOC[C@H](COP(=O)(O)OC[C@H]1O[C@@](C#N)(c2ccc3c(N)ncnn23)[C@H](O)[C@@H]1O)OCc1ccccc1C#N [Compound 9l, ((2R,3S,4R,5R)-5-(4-Aminopyrrolo[2,1-f][1,2,4]triazin-7-yl)-5-cyano-3,4-dihydroxytetrahydrofuran-2-yl)methyl ((R)-2-((2-cyanobenzyl)oxy)-3-(octadecyloxy)propyl) hydrogen phosphate]			> 100	82.8			91 ± 25	186 ± 47		102 ± 17	281 ± 30				
CCCCCCCCCCCCCCCCCCOC[C@H](COP(=O)(O)OC[C@H]1O[C@@](C#N)(c2ccc3c(N)ncnn23)[C@H](O)[C@@H]1O)OCc1cccc(C(F)(F)F)c1 [Compound 9e, ((2R,3S,4R,5R)-5-(4-Aminopyrrolo[2,1-f][1,2,4]triazin-7-yl)-5-cyano-3,4-dihydroxytetrahydrofuran-2-yl)methyl ((R)-3-(octadecyloxy)-2-((3-(trifluoromethyl)benzyl)oxy)propyl) hydrogen phosphate]				66.9			160 ± 93	316 ± 83							
CCCCCCCCCCCCCCCCCCOC[C@H](COP(=O)(O)OC[C@H]1O[C@@](C#N)(c2ccc3c(N)ncnn23)[C@H](O)[C@@H]1O)OCc1cccc(C#N)c1 [Compound 9k, ((2R,3S,4R,5R)-5-(4-Aminopyrrolo[2,1-f][1,2,4]triazin-7-yl)-5-cyano-3,4-dihydroxytetrahydrofuran-2-yl)methyl ((R)-2-((3-cyanobenzyl)oxy)-3-(octadecyloxy)propyl) hydrogen phosphate]			49.6	61.6			34 ± 7	65 ± 36		24 ± 6	77 ± 17	3–5.5 fold	6.7	9.1	
CCCCCCCCCCCCCCCCCCOC[C@H](COP(=O)(O)OC[C@H]1O[C@@](C#N)(c2ccc3c(N)ncnn23)[C@H](O)[C@@H]1O)OCCC1CCCCC1 [Compound 9i, ((2R,3S,4R,5R)-5-(4-Aminopyrrolo[2,1-f][1,2,4]triazin-7-yl)-5-cyano-3,4-dihydroxytetrahydrofuran-2-yl)methyl ((R)-2-(2-cyclohexylethoxy)-3-(octadecyloxy)propyl) hydrogen phosphate]			69.8	98.7	296 ± 10	582 ± 14	144 ± 20	1830 ± 1040		92 ± 26	1310 ± 310				> 100
CCCCCCCCCCCCCCCCCCOCC(COP(=O)(O)OC[C@H]1O[C@@](C#N)(c2ccc3c(N)ncnn23)[C@H](O)[C@@H]1O)OCc1ccccc1 (stereo partly drawn) [Compound 9c, ((2R,3S,4R,5R)-5-(4-aminopyrrolo[2,1-f][1,2,4]triazin-7-yl)-5-cyano-3,4-dihydroxytetrahydrofuran-2-yl)methyl ((R,S)-2-(benzyloxy)-3-(octadecyloxy)propyl) hydrogen phosphate]			64.6	92.1	238 ± 74	613 ± 84	172 ± 78	1070 ± 1040	> 100	175 ± 120	519 ± 256				
CCCCCCCCCCCCCCCCCCOC[C@H](COP(=O)(O)OC[C@H]1O[C@@](C#N)(c2ccc3c(N)ncnn23)[C@H](O)[C@@H]1O)OCc1cccc(F)c1 [Compound 9d, ((2R,3S,4R,5R)-5-(4-Aminopyrrolo[2,1-f][1,2,4]triazin-7-yl)-5-cyano-3,4-dihydroxytetrahydrofuran-2-yl)methyl ((R)-2-((3-fluorobenzyl)oxy)-3-(octadecyloxy)propyl) hydrogen phosphate]			75	94.7	271 ± 22	629 ± 61	224 ± 129	506 ± 204	> 100	191 ± 77	488 ± 199				
CCCCCCCCCCCCCCCCCCOC[C@H](COP(=O)(O)OC[C@H]1O[C@@](C#N)(c2ccc3c(N)ncnn23)[C@H](O)[C@@H]1O)OCCCCCCCC [Compound 9h, ((2R,3S,4R,5R)-5-(4-Aminopyrrolo[2,1-f][1,2,4]triazin-7-yl)-5-cyano-3,4-dihydroxytetrahydrofuran-2-yl)methyl ((R)-3-(octadecyloxy)-2-(octyloxy)propyl) hydrogen phosphate]			> 100	> 100	775 ± 245	1790 ± 140	391 ± 39	2500 ± 1240	> 100	564 ± 252	3360 ± 2860				
CCCCCCCCCCCCCCCCCCOC[C@@H](COP(=O)(O)OC[C@H]1O[C@@](C#N)(c2ccc3c(N)ncnn23)[C@H](O)[C@@H]1O)OCc1ccccc1 [Compound 9b, ((2R,3S,4R,5R)-5-(4-Aminopyrrolo[2,1-f][1,2,4]triazin-7-yl)-5-cyano-3,4-dihydroxytetrahydrofuran-2-yl)methyl ((S)-2-(benzyloxy)-3-(octadecyloxy)propyl) hydrogen phosphate]				93.4			160 ± 24	625 ± 195							
CCCCCCCCCCCCCCCCCCOC[C@H](COP(=O)(O)OC[C@H]1O[C@@](C#N)(c2ccc3c(N)ncnn23)[C@H](O)[C@@H]1O)OCc1ccc(C#N)cc1 [Compound 9j, ((2R,3S,4R,5R)-5-(4-Aminopyrrolo[2,1-f][1,2,4]triazin-7-yl)-5-cyano-3,4-dihydroxytetrahydrofuran-2-yl)methyl ((R)-2-((4-cyanobenzyl)oxy)-3-(octadecyloxy)propyl) hydrogen phosphate]			47.2	60.2			43 ± 13	82 ± 22		24 ± 2	70 ± 10	3–5.5 fold	5.3	11.5	
CCCCCCCCCCCCCCCCCCOC[C@H](COP(=O)(O)OC[C@H]1O[C@@](C#N)(c2ccc3c(N)ncnn23)[C@H](O)[C@@H]1O)OCc1ccc(C(F)(F)F)cc1 [Compound 9f, ((2R,3S,4R,5R)-5-(4-Aminopyrrolo[2,1-f][1,2,4]triazin-7-yl)-5-cyano-3,4-dihydroxytetrahydrofuran-2-yl)methyl ((R)-3-(octadecyloxy)-2-((4-(trifluoromethyl)benzyl)oxy)propyl) hydrogen phosphate]				90.2			177 ± 12	408 ± 181							
